These results are taken from patent publication US5872104A, “Combinations and methods for reducing antimicrobial resistance” (Oridigm Corporation, priority 1994, dated 1999).

The test system of one data set is lysosomal ADA. The conditions noted are these: 0.02 mM; cited from earlier work.
For another data set, the system named is neoplastic cells. The note with it: cited from earlier work.
For data set [1] the following is noted: 1 mg/kg/day for 5 days; cited from earlier work.
Data set [2] concerns adenosine deaminase. The conditions noted are these: cited from earlier work.
Data set [3] concerns tumor-derived methionine adenosyltransferases. The note with it: cited from earlier work.
Data set [4] has as its system S. aureus 27660 (erythromycin resistant). Type of data set: cell-based.
Another data set has as its system rat leukemia (BNML). The conditions noted are these: nitrous oxide plus cycloleucine; cited from earlier work.
The test system of data set [5] is internal m^6 A of late SV40 mRNA. The conditions noted are these: 0.5 mg/ml; cited from earlier work.
The test system of data set [6] is S. aureus 6538 (erythromycin susceptible). Description: Erythromycin disk susceptibility with inhibitor pre-mixed in agar. It is filed as cell-based. The conditions noted are these: inhibitor pre-mixed with BHIA or TSA, with erythromycin (FIG. 2).
The test system of a further data set is SAM synthetase. The note with it: cited from earlier work.
Data set [7] deals with L1210 cells. The conditions noted are these: absence of polyamine depletion; cited from earlier work.
The test system of the next data set is anaerobic bacteria. The note with it: cited from earlier work.
A further data set deals with methionine synthetase. The conditions noted are these: cited from earlier work.
A further data set has as its system E. coli. The conditions noted are these: elevated pressures; cited from earlier work.
In a further data set the test system is Streptococcus faecalis. The conditions noted are these: elevated pressures; cited from earlier work.
The test system of the next data set is Salmonella typhimurium. The conditions noted are these: elevated pressures; cited from earlier work.
The conditions of data set [8]: prolonged exposure to clinical concentrations; cited from earlier work.
A further data set relates to S. aureus. The conditions noted are these: elevated pressures; cited from earlier work.
The next data set relates to cell culture. The conditions noted are these: cited from earlier work.
In another data set the test system is SAH hydrolase. The conditions noted are these: cited from earlier work.
The subject of a further data set is Brucella canis. The note with it: 2×10 mg/kg; cited from earlier work.
A further data set deals with cellular toxicity. The note with it: cited from earlier work.
A further data set has as its system tRNA methylation. The note with it: cited from earlier work.
Data set [9] relates to vaccinia virion mRNA(nucleoside-2'-)methyltransferase. The conditions noted are these: cited from earlier work.
Data set [10] relates to RNA methyltransferases from Streptomyces (S. antibioticus, S. incarnatus, S. griseolus). The note with it: cited from earlier work.
Data set [11] deals with DNA methylases from S. antibioticus. The conditions noted are these: non-sinefungin producer; cited from earlier work.
The next data set has as its system rRNA of S. cerevisiae. The note with it: cited from earlier work.
The subject of a further data set is Cryptosporidium parvum. The conditions noted are these: in vivo; cited from earlier work.
For another data set, the system named is S. antibioticus. The conditions noted are these: cited from earlier work.
The test system of data set [12] is Newcastle disease virion mRNA(guanine-7-)methyltransferase. The note with it: cited from earlier work.
Data set [13] concerns RNA methyltransferase from Streptomyces antibioticus. The conditions noted are these: 50 μM; cited from earlier work.
Another data set concerns cutaneous Leishmaniasis. The note with it: mouse, in vivo; cited from earlier work.
Another data set concerns virion plaque formation. The note with it: 10 μM; cited from earlier work.
For data set [14], the system named is vaccinia virion mRNA(guanine-7)methyltransferase. The note with it: cited from earlier work.
For data set [15], the system named is mature rRNA in Novikoff hepatoma cells. The note with it: cited from earlier work.
For data set [16] the following is noted: iv., mice; cited from earlier work.
The test system of data set [17] is tRNA methylases isolated from E. coli. The conditions noted are these: cited from earlier work.
Another data set deals with rRNA processing. The note with it: cited from earlier work.
For data set [18], the system named is rat SAM synthetase M-1 isozyme. The conditions noted are these: cited from earlier work.
Data set [19] deals with rat SAM synthetase M-2 isozyme. The note with it: cited from earlier work.
The test system of a further data set is SAM-synthetase. The note with it: in vivo; cited from earlier work.
The test system of a further data set is glutathione. The conditions noted are these: ip.; 4.5 mmol/kg buthionine sulfoximine and […] diethyl maleate; cited from earlier work.
The test system of data set [20] is 28S and 18S rRNA formation. The note with it: cited from earlier work.
Data set [21] deals with L1210 cells. Kind of data set: Growth inhibition in L1210 cell culture. Type of data set: cell-based.
The subject of a further data set is SAM pools in L1210 cells. The conditions noted are these: cited from earlier work.
For data set [22], the system named is adenosine deaminase. The conditions noted are these: cited from earlier work. The source holds these as a separate data set.
The subject of the next data set is murine L929 SAHH. The conditions noted are these: cited from earlier work.
Another data set relates to viruses. The note with it: cited from earlier work.

“Also recorded” adds a separate entry of the source. Like-named read-outs stand apart in the source and are kept apart here.

For the compound `OC[C@H]1O[C@@H](n2cnc3c2NC=NC[C@H]3O)C[C@@H]1O` [2'-deoxyconformycin (pentostatin)], the “inhibition of lysosomal ADA” value in the data set on lysosomal ADA is on record as over 97%. Besides, the “safe and effective low weekly dose (protracted ADA inhibition in neoplastic cells)” value in the data set with neoplastic cells is recorded as 0.13 mg/kg. The tolerability in patients result in [1] is given as “minimal distress”. Further, in the data set with adenosine deaminase [2], the ADA inhibition result is given as “potent inhibitors of ADA”.

Broadly, the inhibition is the share of the control response that was lost under treatment. As usually defined, the IC50 is the concentration that inhibits the measured activity by half. On to `NC1(C(=O)O)CCCC1` [cycloleucine, 1-aminocyclopentane-1-carboxylic acid], for which the inhibition entry in [3] was “effective inhibitors”. In addition, in data set [4] (0.1M in Brain Heart Infusion Agar (FIG. 3)), the “improved killing, increase over control” value was 240%. The “increase in the size of the clear zone” value in data set [4] (inhibitor pre-mixed with BHIA or TSA, with erythromycin (FIG. 3)) was “increase in the size of the clear zone”; in data set [6] it was “increase in the size of the clear zone”. Also, in the data set with rat leukemia (BNML), the growth inhibiting effects entry is on record as “synergistic growth inhibiting effects”. Moreover, in data set [5], the “decrease in internal m^6 A” value is over 30%. Further, the SAM synthetase inhibition entry in the data set on SAM synthetase is “inhibitor of SAM synthetase”. Moreover, in the data set on L1210 cells [7], the IC50 was 5000 µM.

As to `CCC[C@@H]1C[C@@H](C(=O)N[C@@H]([C@H]2O[C@H](SC)[C@H](O)[C@@H](O)[C@H]2O)[C@H](C)Cl)N(C)C1` [clindamycin], the “activity against anaerobic bacteria” value with anaerobic bacteria is “potent against anaerobic bacteria”.

Regarding `[N-]=[N+]=O` [nitrous oxide], the methionine synthetase result in the data set on methionine synthetase is on record as “inhibiting methionine synthetase”. Besides, the inhibition of bacteria result in the data set on E. coli, in the data set on Streptococcus faecalis, in the data set on Salmonella typhimurium and with S. aureus was “inhibited” throughout. Also, in the data set on rat leukemia (BNML), the growth inhibiting effects entry is “synergistic growth inhibiting effects”. The “adverse effects of prolonged exposure” value in [8] is “inhibits cellular proliferation and can lead to megaloblastic anemia, leukopenia, and thrombocytopenia”.

Consider `Nc1ncnc2c1ncn2[C@@H]1C[C@H](O)[C@@H](O)[C@H]1O` (relative stereo) [(±)-5-Noraristeromycin], for which the times less cytotoxic in the data set on cell culture is on record as 10 to 20 times. In the data set on SAH hydrolase, the SAH hydrolase inhibition entry was “inhibitors of SAHH”.

With `[H]/N=C(/N)N[C@H]1[C@H](O)[C@@H](O)[C@H](O[C@@H]2O[C@@H](C)[C@](O)(C=O)[C@H]2O[C@@H]2O[C@@H](CO)[C@H](O)[C@@H](O)[C@@H]2NC)[C@@H](N/C(N)=N\[H])[C@@H]1O` [streptomycin], in the data set with Brucella canis, the surviving bacteria result is on record as “only a minor reduction in the number of surviving bacteria”.

As to `Nc1ncnc2c1ncn2[C@@H]1O[C@H](C[C@@H](N)CC[C@H](N)C(=O)O)[C@@H](O)[C@H]1O` [sinefungin], the cellular toxicity result is “no cellular toxicity was detected” with cellular toxicity (10 μM) and “significant cellular toxicity” in the data set with cellular toxicity (higher concentrations (above 10 μM)). Besides, the “inhibition of methylation by base” value in the data set on tRNA methylation is “inhibits the methylation of adenine or guanine to a greater extent than cytosine in tRNA”; in the data set with tRNA methylation (listed as Sinefungin), “very strongly inhibits the methylation of G in position 2 and 7, and that of A in position 1 and 6”. In addition, the inhibition result in [9] is listed as “potent inhibitors”; in [12], “potent inhibitors”; in data set [13], 96%; in [14] (100 μM), 100%; in [14], “potent inhibitors”. The “inhibition of RNA methyltransferases” value in [10] was “strongly inhibit RNA methyltransferases; also recorded: inhibited RNA methyltransferase”. The “inhibition of DNA methylases” value in [11] is listed as “noticeably inhibited”. In addition, the “rRNA methylation / stable 18S rRNA” value in the data set on rRNA of S. cerevisiae was “inhibits methylation of rRNA in S.cerevisiae and leads to a decrease in stable 18S rRNA”. In addition, in the data set on Cryptosporidium parvum, the “usable dosage in rat model” value is given as 10 mg/kg/day. Also, the sporulation result in the data set with S. antibioticus is recorded as “inhibits sporulation”. Besides, the “synthesis of DNA methyltransferases” value with S. antibioticus was “didn't inhibit the synthesis of DNA methyltransferases”. Also, the optimum dosage in the data set with cutaneous Leishmaniasis is listed as 4 mg/kg/day. For the same compound, the “optimum dosage: times lower than the LD50” value in the data set on cutaneous Leishmaniasis is 50 times. Further, the “inhibition of virion plaque formation” value with virion plaque formation is recorded as “significant inhibition of virion plaque formation”.

Usually LD50 stands for the dose expected to kill half of the subjects tested. On to `Nc1ncnc2c1ccn2[C@@H]1O[C@H](CO)[C@@H](O)[C@H]1O` [Tubercidin, 7-deazaadenosine], for which the “formation of mature rRNA” value in [15] is “inhibit the formation of mature 28S and 18”. The median lethal dose (LD50) in [16] is recorded as 45 mg/kg. For the same compound, the “inhibition of E. coli tRNA methylases” value in [17] was “inhibitory to tRNA methylases isolated from E. coli”. Besides, the rRNA processing entry in the data set with rRNA processing is “inhibits rRNA processing in addition to methylation of tRNA and protein and nucleic acid synthesis”. Moreover, in the data set on SAH hydrolase, the SAH hydrolase inhibition result is “inhibits SAHH”.

With `Nc1ncnc2c1ncn2[C@@H]1O[C@H]([C@H](CSCC[C@H](N)C(=O)O)OP(=O)(O)OP(=O)(O)NP(=O)(O)O)[C@@H](O)[C@H]1O` [5'(R)-(C)-[(L-homocysteine-S-yl)methyl]adenosine 5'-(β,γ-imidotriphosphate)], the inhibition result in [18] and in data set [19] was “most effective inhibitor” each time.

In the case of `CCCCS(=N)(=O)CCC(N)C(=O)O` (centres unmarked) [buthionine sulfoximine, CH3 (CH2)2 S (O)(=NH)CH2 CH2 CH(NH2)COOH], the “SAM-synthetase activity, % of untreated animals” value with SAM-synthetase is reported as “about 40%”. Also, the depletion of glutathione result in the data set with glutathione is “depleted liver and aortic glutathione”.

For `Nc1ncn([C@@H]2O[C@H](CO)[C@@H](O)[C@H]2O)c(=O)n1` [5-Azacitidine], the “formation of 28S and 18S RNA” value in data set [20] is “severely inhibited”.

Regarding `CO/C=C\[C@H](N)C(=O)O` (stereo in doubt) [L-cis-AMB, L-2-amino-4-methoxy-cis-but-3-enoic acid], the “IC50, fold lower than that of cycloleucine” value with L1210 cells [21] is listed as “about 10 fold”. Besides, the SAM synthetase inhibition entry in the data set with SAM synthetase was “most potent methionine-analogue inhibitor of SAM synthetase at that time”. The IC50 in the data set on L1210 cells [7] is 400 µM. Further, the “depletion of SAM” value in the data set on SAM pools in L1210 cells (1 mM, cultured L1210 cells) is “rapid and near-total depletion of SAM by 4 hours”. Also, the “SAM pools in intact cells” value in the data set with SAM pools in L1210 cells (intact cells) is on record as “rapidly depleting SAM pools in intact cells without affecting precursor incorporation into macromolecules”.

Consider `CC(O)C1=C[C@@H](n2cnc3c(N)ncnc32)[C@H](O)[C@@H]1O` (some centres unmarked) [6'-C-methylneplanocin A], for which, in the data set with adenosine deaminase [22], the “resistance to adenosine deaminase” value was “virtually resistant to adenosine deaminase”. Also, the SAHH inhibition result in the data set on murine L929 SAHH is “good inhibitor of murine L929 SAHH”. The “antiviral potency and selectivity vs neplanocin A” value with viruses is “surpassing neplanocin A both in antiviral potency and selectivity”.
